Source: patent publication US9458137B2, “Substituted indol-5-ol derivatives and their therapeutical applications” (NantBioScience, Inc., priority 2012, dated 2016)

Assays:
[1] = test system: human MV411 human acute myelogenous leukemia (AML) xenograft; type: in vivo, SCID mice; conditions: 25, 50 mg/kg, 5-day on, two-day off for two cycles; female SCID mice
Method: The objective of the first study was to evaluate antitumor activities of the novel multiple-kinase inhibitor NTW-3475 against human MV411 human acute myelogenous leukemia (AML) xenograft model in female SCID mice.
Four or six animals were randomly assigned to each study group. Each animal was injected subcutaneously in the left and right flank area with 0.1 ml of 1.0×10^8 MV411 cells per mL
Each test or control animal was placed on a 5-day on, two-day off for two cycles of vehicle negative control or 25, 50 mg/kg of NTW-3475. Tumor growth was measured with a digital hand held caliper twice weekly (once tumor emerges) prior to the first dosing and then two to three times weekly until euthanized. Animals were weighed prior to tumor cell injection, prior to dosing, two to three times weekly with tumor growth measurements, and prior to euthanasia.
FIGS. 27-32 depict the results of various concentrations of NTW-3456 on tumor growth in scid mouse/xenograft model of AML using MV411 cells. […] This invention is characterized as it is here was a correlation between the inhibition of the pFLT3 kinase and growth control.

[2] = test system: AN3 human endometrial carcinoma carcinoma xenograft; test: AN3 endometrial carcinoma xenograft; type: in vivo, nude mouse; conditions: AN3 xenograft
Text: This example assesses NTW-3475's anti-tumor activity using a scid mouse xenograft models for leukemias and nude mouse xenograft models of endometrial, pancreatic and thyroid carcinomas. NTW-3475 combination therapy was also studied in murine xenografts.
FIGS. 39-41 depict the results of various concentrations of NTW-3456 on the AN3 nude mouse/xenograft model of endometrial carcinoma.

[3] = molecular target: P1k1(h) (Homo sapiens, UniProt P53350); test: Kinase panel activity; type: biochemical; conditions: 0.1 μM, ATP Km
Method: (§1) The effect of NTW-3475 on kinase activity was tested for a wide range of kinases and is shown in Table 2: Summary Sheet, Activity % ATP Concentration: Km

[4] = molecular target: FGFR3(h) (Homo sapiens, UniProt P22607); test: Kinase panel activity; type: biochemical; conditions: 0.1 μM, ATP Km
Sequence of FGFR3(h) (P22607 23-806): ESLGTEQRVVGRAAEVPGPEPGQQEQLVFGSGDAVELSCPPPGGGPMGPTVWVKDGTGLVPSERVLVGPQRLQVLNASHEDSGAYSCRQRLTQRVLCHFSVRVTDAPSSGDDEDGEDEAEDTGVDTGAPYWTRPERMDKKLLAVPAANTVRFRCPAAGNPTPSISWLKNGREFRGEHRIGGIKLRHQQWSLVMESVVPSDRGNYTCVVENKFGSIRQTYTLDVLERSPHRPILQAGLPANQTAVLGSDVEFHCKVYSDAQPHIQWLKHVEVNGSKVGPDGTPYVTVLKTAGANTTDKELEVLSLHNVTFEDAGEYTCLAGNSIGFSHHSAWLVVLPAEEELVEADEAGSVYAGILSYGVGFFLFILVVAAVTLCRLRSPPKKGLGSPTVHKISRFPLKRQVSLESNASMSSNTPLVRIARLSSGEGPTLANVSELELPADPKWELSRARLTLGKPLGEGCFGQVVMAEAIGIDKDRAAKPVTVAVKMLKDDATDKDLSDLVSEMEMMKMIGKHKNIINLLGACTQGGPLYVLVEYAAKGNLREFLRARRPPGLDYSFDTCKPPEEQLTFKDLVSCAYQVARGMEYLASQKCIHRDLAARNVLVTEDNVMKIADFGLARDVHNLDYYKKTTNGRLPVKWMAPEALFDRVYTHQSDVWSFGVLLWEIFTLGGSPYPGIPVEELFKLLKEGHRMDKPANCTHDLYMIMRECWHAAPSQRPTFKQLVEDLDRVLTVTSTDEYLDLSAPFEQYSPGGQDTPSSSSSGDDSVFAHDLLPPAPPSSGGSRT
Method: as §1

[5] = molecular target: T1, Rse(h) (Homo sapiens, UniProt Q06418); test: Kinase panel activity; type: biochemical; conditions: 0.1 μM, ATP Km
T1 construct: purchased Millipore (KinaseProfiler service)
T1 sequence (Q06418 41-890): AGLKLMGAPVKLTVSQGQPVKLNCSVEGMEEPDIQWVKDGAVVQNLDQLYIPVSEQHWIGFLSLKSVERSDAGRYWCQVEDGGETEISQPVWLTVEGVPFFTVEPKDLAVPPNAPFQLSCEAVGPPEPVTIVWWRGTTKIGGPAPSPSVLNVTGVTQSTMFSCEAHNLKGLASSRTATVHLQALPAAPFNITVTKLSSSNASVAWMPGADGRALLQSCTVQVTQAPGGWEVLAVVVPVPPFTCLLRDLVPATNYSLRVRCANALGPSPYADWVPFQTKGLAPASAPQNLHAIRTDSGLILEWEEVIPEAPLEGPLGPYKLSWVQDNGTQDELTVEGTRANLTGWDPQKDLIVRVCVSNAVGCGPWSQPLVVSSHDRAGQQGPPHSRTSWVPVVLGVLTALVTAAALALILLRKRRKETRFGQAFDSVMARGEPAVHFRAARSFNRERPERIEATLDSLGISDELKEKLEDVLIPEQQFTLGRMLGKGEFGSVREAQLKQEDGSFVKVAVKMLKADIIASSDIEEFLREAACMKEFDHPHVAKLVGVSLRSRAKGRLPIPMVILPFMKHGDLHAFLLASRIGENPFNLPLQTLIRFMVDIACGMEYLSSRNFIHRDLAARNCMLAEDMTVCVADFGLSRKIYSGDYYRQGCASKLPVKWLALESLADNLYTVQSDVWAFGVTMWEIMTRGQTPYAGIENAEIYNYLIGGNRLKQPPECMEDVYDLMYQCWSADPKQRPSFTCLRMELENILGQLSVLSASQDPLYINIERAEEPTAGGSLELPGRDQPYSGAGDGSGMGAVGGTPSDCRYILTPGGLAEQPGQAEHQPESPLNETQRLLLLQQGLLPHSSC
Method: as §1

[6] = molecular target: T2, TSSK2(h) (Homo sapiens, UniProt Q96PF2); test: Kinase panel activity; type: biochemical; conditions: 0.1 μM, ATP Km
T2 construct: purchased Millipore (KinaseProfiler service)
T2 sequence (Q96PF2 whole entry): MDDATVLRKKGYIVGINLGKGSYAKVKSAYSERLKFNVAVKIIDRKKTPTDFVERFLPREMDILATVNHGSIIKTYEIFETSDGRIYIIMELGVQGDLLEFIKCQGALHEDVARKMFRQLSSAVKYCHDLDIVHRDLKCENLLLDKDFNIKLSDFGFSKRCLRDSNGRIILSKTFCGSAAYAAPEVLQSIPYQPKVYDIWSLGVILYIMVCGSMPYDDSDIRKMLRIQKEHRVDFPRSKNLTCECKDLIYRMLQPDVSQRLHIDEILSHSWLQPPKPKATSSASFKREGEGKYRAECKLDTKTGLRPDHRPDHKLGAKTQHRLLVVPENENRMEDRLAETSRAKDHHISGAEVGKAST
Method: as §1

[7] = molecular target: MST3(h) (Homo sapiens, UniProt Q9Y6E0); test: Kinase panel activity; type: biochemical; conditions: 0.1 μM, ATP Km
Method: as §1

[8] = molecular target: NEK3(h) (Homo sapiens, UniProt P51956); test: Kinase panel activity; type: biochemical; conditions: 0.1 μM, ATP Km
Sequence of NEK3(h) (P51956 whole entry): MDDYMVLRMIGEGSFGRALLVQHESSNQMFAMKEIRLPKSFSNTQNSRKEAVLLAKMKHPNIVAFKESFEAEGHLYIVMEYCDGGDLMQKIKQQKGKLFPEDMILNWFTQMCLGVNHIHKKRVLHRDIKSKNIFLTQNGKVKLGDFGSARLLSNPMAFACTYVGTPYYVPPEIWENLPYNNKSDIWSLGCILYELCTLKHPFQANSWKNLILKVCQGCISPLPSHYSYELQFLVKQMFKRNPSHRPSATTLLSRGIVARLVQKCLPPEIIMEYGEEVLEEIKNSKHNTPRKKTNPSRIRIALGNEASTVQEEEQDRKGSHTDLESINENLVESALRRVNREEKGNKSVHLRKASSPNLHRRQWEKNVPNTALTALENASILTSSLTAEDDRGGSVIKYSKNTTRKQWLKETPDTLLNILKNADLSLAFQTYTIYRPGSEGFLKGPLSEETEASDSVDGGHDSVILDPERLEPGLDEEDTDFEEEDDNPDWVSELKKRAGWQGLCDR
Method: as §1

[9] = molecular target: F1t1(h) (Homo sapiens, UniProt P17948); test: Kinase panel activity; type: biochemical; conditions: 0.1 μM, ATP Km
Sequence of F1t1(h) (P17948 27-1338): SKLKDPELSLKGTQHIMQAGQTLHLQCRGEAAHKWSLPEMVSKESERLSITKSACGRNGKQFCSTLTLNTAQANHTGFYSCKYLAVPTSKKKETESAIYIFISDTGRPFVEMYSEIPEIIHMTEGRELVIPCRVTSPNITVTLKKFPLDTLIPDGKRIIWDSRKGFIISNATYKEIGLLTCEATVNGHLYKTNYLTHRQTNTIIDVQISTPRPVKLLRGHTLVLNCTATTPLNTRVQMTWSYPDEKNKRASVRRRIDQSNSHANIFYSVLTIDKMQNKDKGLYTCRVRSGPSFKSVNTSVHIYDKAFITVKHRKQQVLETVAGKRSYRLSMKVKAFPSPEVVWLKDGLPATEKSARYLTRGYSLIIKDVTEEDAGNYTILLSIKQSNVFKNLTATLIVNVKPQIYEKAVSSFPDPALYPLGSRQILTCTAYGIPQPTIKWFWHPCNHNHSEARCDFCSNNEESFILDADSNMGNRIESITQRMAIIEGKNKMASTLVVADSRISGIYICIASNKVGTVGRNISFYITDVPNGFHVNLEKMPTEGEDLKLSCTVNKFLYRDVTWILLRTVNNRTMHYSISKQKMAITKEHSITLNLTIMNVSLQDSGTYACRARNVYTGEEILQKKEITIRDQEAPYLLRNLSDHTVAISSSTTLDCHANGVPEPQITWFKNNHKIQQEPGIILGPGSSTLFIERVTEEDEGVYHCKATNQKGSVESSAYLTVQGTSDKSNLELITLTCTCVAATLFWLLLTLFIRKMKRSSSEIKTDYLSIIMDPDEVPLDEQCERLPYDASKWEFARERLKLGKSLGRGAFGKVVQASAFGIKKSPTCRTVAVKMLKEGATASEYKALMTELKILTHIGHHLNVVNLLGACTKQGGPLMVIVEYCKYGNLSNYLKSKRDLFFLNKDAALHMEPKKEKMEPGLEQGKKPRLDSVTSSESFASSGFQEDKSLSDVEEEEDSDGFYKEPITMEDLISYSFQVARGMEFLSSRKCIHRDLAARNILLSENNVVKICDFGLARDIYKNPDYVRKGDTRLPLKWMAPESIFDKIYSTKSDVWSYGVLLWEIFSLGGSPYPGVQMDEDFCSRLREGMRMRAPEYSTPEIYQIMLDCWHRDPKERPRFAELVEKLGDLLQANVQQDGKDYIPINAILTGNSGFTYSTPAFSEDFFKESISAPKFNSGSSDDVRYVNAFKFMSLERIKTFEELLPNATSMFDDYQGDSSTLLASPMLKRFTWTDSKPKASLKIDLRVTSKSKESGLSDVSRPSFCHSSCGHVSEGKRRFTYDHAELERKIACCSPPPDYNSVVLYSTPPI
Method: as §1

[10] = molecular target: ULK2(h) (Homo sapiens, UniProt Q8IYT8); test: Kinase panel activity; type: biochemical; conditions: 0.1 μM, ATP Km
Sequence of ULK2(h) (Q8IYT8 whole entry): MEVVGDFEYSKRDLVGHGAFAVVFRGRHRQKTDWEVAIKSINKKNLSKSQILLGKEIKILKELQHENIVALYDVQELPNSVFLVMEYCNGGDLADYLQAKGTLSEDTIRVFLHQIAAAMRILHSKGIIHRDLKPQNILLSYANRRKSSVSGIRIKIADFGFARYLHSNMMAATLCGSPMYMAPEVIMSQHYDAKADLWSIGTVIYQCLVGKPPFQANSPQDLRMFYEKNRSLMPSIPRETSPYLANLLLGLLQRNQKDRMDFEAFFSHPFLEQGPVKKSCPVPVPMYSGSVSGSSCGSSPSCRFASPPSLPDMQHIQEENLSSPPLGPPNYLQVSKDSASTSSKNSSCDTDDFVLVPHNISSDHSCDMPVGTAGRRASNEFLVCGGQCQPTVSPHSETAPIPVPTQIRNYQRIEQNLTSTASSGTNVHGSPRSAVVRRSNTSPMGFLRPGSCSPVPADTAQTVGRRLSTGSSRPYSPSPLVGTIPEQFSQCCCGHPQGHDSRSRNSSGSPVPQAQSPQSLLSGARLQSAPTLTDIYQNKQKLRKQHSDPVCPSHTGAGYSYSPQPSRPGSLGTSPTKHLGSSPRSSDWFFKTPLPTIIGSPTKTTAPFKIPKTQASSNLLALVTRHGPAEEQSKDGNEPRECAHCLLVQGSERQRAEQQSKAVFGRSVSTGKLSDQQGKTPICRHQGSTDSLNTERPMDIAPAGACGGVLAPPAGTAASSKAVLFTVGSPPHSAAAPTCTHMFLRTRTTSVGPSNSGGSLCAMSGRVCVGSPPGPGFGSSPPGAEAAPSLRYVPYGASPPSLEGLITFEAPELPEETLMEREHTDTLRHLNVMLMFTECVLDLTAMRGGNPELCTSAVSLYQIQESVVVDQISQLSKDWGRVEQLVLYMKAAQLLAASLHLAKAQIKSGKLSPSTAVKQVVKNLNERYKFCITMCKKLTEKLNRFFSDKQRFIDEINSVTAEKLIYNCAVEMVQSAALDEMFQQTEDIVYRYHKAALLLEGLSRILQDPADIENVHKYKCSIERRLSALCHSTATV
Method: as §1

[11] = test system: human MIAPaCa-2 pancreatic carcinoma xenograft; test: MIAPaCa-2 pancreatic carcinoma xenograft; type: in vivo, athymic nude-Faxn1 mice
Method: The objective of the third study was to evaluate antitumor activities of novel multiple-kinase inhibitor NTW-3475 in human MIAPaCa-2 pancreatic carcinoma xenograft in athymic nude-Faxn1 mice.
Four animals were randomly assigned to study groups. Each animal was weighed, and then injected subcutaneously in the left and right flank area with 0.1 ml of 5.0×10^7 MIAPaCa-2 cells per mL.
Each test or control animal was on a 5-day on, two-day off for two cycles treatment schedule with negative control vehicle, positive control Abraxane at 20 mg/kg or 25, 50 mg/kg of NTW-3475. Tumor growth was measured with a digital hand held caliper twice weekly (once tumor emerges) prior to the first dosing and then two to three times weekly until euthanized.
FIGS. 42-44 depict the results of various concentrations of NTW-3456 on a nude mouse/xenograft the MIAPaCa-2 model of pancreatic carcinoma.
FIGS. 45 and 46 depict the results of various concentrations of NTW-3456, with or without Abraxane on a MiaPaCa-2 model of pancreatic carcinoma.

[12] = test system: CK1(y); test: Kinase panel activity; type: biochemical, yeast; conditions: 0.1 μM, ATP Km
Method: as §1

Cc1cc2c(F)c(Oc3nc(Nc4cc(C5CC5)[nH]n4)cc(N4CCN(C)CC4)n3)cc(F)c2[nH]1 [NTW-3475]
anti-tumor effect against AML [1]: strong anti-tumor effect
anti-tumor effect [2]: anti-tumor effect
Activity % [3]: 107%
Activity % [4]: 0%
Activity % [5]: 55%
Activity % [6]: 84%
Activity % [7]: 9%
Activity % [8]: 82%
Activity % [9]: 11%
Activity % [10]: 46%
anti-tumor effect against pancreatic carcinoma cells ([11]; 25, 50 mg/kg, 5-day on, two-day off for two cycles): strong anti-tumor effect
anti-tumor effect of the combination ([11]; in combination with Abraxane): anti-tumor effect
Activity % [12]: 100%
